Experiments:
Glucocorticoid receptor [1] = target: T1, Glucocorticoid receptor (Homo sapiens, UniProt P04150); experiment: Displacement of [3H]dexamethasone from human recombinant glucocorticoid receptor expressed in baculovirus after 18 hrs by scintillation counting analysis
T1 sequence (P04150 whole entry): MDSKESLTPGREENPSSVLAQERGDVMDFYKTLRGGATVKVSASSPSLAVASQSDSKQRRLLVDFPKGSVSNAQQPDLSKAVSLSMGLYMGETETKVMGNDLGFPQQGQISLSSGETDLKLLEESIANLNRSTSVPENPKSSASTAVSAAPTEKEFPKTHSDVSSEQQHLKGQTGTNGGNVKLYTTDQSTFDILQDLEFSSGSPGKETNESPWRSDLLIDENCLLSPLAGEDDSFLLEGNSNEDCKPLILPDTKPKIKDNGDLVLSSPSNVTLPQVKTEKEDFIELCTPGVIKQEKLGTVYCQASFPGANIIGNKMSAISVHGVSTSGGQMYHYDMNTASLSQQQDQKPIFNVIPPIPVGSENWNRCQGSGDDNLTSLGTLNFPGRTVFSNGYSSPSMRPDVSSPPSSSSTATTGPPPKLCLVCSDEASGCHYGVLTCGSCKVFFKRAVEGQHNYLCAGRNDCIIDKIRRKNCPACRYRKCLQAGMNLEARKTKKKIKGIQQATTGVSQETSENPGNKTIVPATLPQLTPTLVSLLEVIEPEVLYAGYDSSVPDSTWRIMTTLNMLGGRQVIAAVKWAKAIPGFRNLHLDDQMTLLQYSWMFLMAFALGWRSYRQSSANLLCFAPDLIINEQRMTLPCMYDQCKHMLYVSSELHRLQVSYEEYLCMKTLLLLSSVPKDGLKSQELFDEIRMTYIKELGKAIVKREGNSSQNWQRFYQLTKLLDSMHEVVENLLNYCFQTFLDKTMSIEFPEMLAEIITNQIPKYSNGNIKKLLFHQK

Glucocorticoid receptor [2] = target: T1, Glucocorticoid receptor; experiment: Antagonist activity at glucocorticoid receptor in human SW1353 cells assessed as inhibition of dexamethasone-induced luciferase expression after 16 hrs by MMTV5 reporter gene assay; format: functional, cell-based
Rattus norvegicus [3] = experiment: Antagonist activity at glucocorticoid receptor in Sprague-Dawley rat assessed as change in olanzapine-induced weight gain at 0.2 mg/kg/day, po administered as divided doses twice daily for 21 days (Rvb =+ 36.5 +/- 10 g); format: functional
[4] = Oral bioavailability in rat at 5 mg/kg; format: ADME, organism-based; settings: in vivo
Cytochrome P450 3A4 = Cytochrome P450 3A4 (Homo sapiens, UniProt P08684); experiment: Inhibition of human CYP3A4; format: ADME
Chain of Cytochrome P450 3A4 (P08684 whole entry): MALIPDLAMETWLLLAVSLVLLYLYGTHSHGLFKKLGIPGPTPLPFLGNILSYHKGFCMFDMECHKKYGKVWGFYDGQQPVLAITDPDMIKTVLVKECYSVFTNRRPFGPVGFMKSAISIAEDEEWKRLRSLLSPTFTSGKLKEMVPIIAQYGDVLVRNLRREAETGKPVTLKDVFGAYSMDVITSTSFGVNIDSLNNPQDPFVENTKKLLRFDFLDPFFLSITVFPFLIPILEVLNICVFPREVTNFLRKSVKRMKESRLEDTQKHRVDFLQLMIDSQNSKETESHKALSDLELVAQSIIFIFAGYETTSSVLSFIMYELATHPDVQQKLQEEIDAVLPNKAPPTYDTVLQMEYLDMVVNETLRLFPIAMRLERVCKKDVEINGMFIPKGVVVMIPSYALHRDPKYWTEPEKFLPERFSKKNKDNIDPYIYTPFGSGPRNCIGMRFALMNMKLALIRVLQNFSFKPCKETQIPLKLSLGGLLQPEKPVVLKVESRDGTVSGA

Cytochrome P450 2D6 = Cytochrome P450 2D6 (Homo sapiens, UniProt P10635); experiment: Inhibition of human CYP2D6; format: ADME
Chain of Cytochrome P450 2D6 (P10635 whole entry): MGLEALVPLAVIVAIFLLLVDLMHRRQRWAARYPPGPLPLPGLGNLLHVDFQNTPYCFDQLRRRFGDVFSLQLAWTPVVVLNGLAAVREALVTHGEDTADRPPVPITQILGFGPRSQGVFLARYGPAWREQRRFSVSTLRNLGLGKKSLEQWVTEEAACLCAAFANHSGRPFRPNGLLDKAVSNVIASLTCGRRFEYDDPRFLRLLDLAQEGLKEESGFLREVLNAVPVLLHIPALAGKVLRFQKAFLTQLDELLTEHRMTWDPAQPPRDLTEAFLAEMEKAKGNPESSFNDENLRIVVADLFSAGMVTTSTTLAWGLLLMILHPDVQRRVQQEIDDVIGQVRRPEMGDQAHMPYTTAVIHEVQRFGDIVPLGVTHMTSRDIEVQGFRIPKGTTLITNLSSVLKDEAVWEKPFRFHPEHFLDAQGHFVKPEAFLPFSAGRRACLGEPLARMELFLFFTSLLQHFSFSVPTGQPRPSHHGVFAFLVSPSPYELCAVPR

[5] = Half life in rat at 1 mg/kg, iv; format: ADME, organism-based; set-up: dose 1 mg/kg, route intravenous; settings: in vivo
[6] = Plasma protein binding in human; format: ADME, cell-free; settings: read-out: PPB
[7] = Plasma protein binding in rat; format: ADME, cell-free; settings: read-out: PPB
Rattus norvegicus [8] = experiment: Antagonist activity at glucocorticoid receptor in Sprague-Dawley rat assessed as change in olanzapine-induced weight gain at 10 mg/kg/day, po administered as divided doses twice daily for 21 days (Rvb =+ 36.5 +/- 10 g); format: functional
Cytochrome P450 2C19 = Cytochrome P450 2C19 (Homo sapiens, UniProt P33261); experiment: Inhibition of human CYP2C19; format: ADME
Chain of Cytochrome P450 2C19 (P33261 whole entry): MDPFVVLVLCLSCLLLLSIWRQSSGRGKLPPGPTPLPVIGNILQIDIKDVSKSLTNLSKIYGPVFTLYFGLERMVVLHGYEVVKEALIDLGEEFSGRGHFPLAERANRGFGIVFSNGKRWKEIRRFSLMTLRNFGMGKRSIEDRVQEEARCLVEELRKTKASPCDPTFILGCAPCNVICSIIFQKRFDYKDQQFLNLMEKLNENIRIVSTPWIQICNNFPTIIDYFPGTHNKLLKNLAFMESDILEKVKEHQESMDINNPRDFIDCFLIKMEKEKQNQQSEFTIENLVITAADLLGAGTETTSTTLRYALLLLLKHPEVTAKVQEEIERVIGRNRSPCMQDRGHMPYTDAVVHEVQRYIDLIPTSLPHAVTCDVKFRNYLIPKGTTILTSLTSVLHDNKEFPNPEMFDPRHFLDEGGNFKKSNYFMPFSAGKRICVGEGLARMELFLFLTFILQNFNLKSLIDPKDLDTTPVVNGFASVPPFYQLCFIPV

Liver microsomes [9] = experiment: Metabolic stability in rat liver microsomes; format: ADME, Microsome
Cytochrome P450 1A2 = target: T2, Cytochrome P450 1A2 (Homo sapiens, UniProt P05177); experiment: Inhibition of human CYP1A2; format: ADME
T2 sequence (P05177 whole entry): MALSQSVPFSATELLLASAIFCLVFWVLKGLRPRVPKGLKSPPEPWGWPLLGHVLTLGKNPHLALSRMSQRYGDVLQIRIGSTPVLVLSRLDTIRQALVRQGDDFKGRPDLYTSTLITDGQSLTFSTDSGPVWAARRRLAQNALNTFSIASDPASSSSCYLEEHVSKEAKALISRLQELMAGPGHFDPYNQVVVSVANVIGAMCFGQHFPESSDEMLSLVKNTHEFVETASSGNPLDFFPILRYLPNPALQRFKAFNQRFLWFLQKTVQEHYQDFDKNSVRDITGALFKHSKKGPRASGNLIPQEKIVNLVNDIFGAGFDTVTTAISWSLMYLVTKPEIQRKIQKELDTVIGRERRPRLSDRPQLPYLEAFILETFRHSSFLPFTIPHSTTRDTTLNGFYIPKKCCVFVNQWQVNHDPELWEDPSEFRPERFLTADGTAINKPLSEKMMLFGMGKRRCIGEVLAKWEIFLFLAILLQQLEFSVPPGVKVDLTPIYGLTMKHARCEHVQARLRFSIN

Rattus norvegicus [10] = experiment: Antagonist activity at glucocorticoid receptor in Sprague-Dawley rat assessed as change in olanzapine-induced weight gain at 0.6 mg/kg/day, po administered as divided doses twice daily for 21 days (Rvb =+ 36.5 +/- 10 g); format: functional
Rattus norvegicus [11] = experiment: Antagonist activity at glucocorticoid receptor in Sprague-Dawley rat assessed as change in olanzapine-induced weight gain at 2 mg/kg/day, po administered as divided doses twice daily for 21 days (Rvb =+ 36.5 +/- 10 g); format: functional
Cytochrome P450 2C9 = Cytochrome P450 2C9 (Homo sapiens, UniProt P11712); experiment: Inhibition of human CYP2C9; format: ADME
Chain of Cytochrome P450 2C9 (P11712 whole entry): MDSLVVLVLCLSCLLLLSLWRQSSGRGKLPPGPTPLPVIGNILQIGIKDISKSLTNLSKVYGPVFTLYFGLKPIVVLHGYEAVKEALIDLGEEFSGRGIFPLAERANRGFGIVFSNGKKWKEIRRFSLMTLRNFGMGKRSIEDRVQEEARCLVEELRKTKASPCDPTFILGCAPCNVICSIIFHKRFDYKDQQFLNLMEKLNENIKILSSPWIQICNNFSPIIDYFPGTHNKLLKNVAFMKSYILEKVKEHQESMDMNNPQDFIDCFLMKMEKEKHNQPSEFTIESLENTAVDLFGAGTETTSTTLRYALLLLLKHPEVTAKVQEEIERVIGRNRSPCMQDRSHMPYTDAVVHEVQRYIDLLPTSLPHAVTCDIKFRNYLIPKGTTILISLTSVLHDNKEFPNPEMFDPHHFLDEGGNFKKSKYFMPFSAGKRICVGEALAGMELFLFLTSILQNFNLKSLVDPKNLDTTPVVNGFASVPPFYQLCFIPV

Liver microsomes [12] = experiment: Metabolic stability in human liver microsomes; format: ADME, Microsome
[13] = Clearance in rat at 1 mg/kg, iv; format: ADME, organism-based; set-up: dose 1 mg/kg, route intravenous; settings: in vivo
Rattus norvegicus [14] = experiment: Antagonist activity at glucocorticoid receptor in Sprague-Dawley rat assessed as change in olanzapine-induced weight gain at 6 mg/kg/day, po administered as divided doses twice daily for 21 days (Rvb =+ 36.5 +/- 10 g); format: functional
Liver = experiment: Metabolic stability in human liver microsomes

| Ki (Glucocorticoid receptor [1]) [nM] | Ki (Glucocorticoid receptor [2]) [nM] | Compound | other results |
| --- | --- | --- | --- |
| 32 |  | O=c1[nH]c(=O)c(Cc2ccccc2)c([C@H]2CC[C@@H](c3ccccc3)CC2)[nH]1 |  |
| 19 | 78 | CCc1ccccc1Cc1c(=O)[nH]c(=O)[nH]c1[C@H]1CC[C@@H](c2ccccc2)CC1 |  |
| 557 |  | CS(=O)(=O)c1ccccc1Cc1c(=O)[nH]c(=O)[nH]c1[C@H]1CC[C@@H](c2ccccc2)CC1 |  |
| 9 | 56 | COc1ccccc1Cc1c(=O)[nH]c(=O)[nH]c1[C@H]1CC[C@@H](c2ccccc2)CC1 |  |
| 49 | 116 | O=c1[nH]c(=O)c(Cc2ncccc2Cl)c([C@H]2CC[C@@H](c3ccccc3)CC2)[nH]1 |  |
| > 50 | > 3000 | Cc1cc(Cc2c(=O)[nH]c(=O)[nH]c2[C@H]2CC[C@@H](c3ccccc3)CC2)ccn1 |  |
| 28 | 119 | Cc1csc(Cc2c(=O)[nH]c(=O)[nH]c2[C@H]2CC[C@@H](c3ccccc3)CC2)n1 |  |
| 18 | 47 | O=c1[nH]c(=O)c(Cc2cccc(C(F)(F)F)n2)c([C@H]2CC[C@@H](c3ccccc3)CC2)[nH]1 |  |
| 24 | 57 | Cn1c(=O)[nH]c([C@H]2CC[C@@H](c3ccccc3)CC2)c(Cc2ccccc2)c1=O |  |
| 98 | > 3000 | O=c1[nH]c([C@H]2CC[C@@H](c3ccccc3)CC2)c(Cc2cccc(C(F)(F)F)c2)c(=O)n1CCO |  |

The remaining lines, values behind:

| Compound | Ki (Glucocorticoid receptor [1]) [nM] | Ki (Glucocorticoid receptor [2]) [nM] | other results |
| --- | --- | --- | --- |
| COCCn1c(=O)[nH]c([C@H]2CC[C@@H](c3ccccc3)CC2)c(Cc2cccc(C(F)(F)F)c2)c1=O | > 50 |  |  |
| O=c1[nH]c(=O)c(Cc2ccccc2)c([C@H]2CC[C@H](c3ccccc3)CC2)[nH]1 | 4 | 44 |  |
| Cc1cccc(Cc2c(=O)[nH]c(=O)[nH]c2[C@H]2CC[C@@H](c3ccccc3)CC2)c1 | 3 | 21 |  |
| O=c1[nH]c(=O)c(Cc2ccccc2Cl)c([C@H]2CC[C@@H](c3ccccc3)CC2)[nH]1 | 7 | 37 |  |
| O=c1[nH]c(=O)c(Cc2cccc(C(F)(F)F)c2)c([C@H]2CC[C@@H](c3ccccc3)CC2)[nH]1 | 8 | 24 | Activity (Rattus norvegicus [3]): 25.6 g; bioavailability [4]: 20%; inhibition (INH) (Cytochrome P450 3A4): Not Active; inhibition (INH) (Cytochrome P450 2D6): Not Active; half-life [5]: 1.8 h; fraction unbound [6]: < 0.001; fraction unbound [7]: < 0.001; Activity (Rattus norvegicus [8]): -23.7 g; inhibition (INH) (Cytochrome P450 2C19): Not Active; Stability (Liver microsomes [9]): Stable; inhibition (INH) (Cytochrome P450 1A2): Not Active; Activity (Rattus norvegicus [10]): 9.8 g; Activity (Rattus norvegicus [11]): -10.2 g; inhibition (INH) (Cytochrome P450 2C9): Not Active; Stability (Liver microsomes [12]): Stable; clearance [13]: 22 mL/min/kg; Activity (Rattus norvegicus [14]): -23.6 g |
| O=c1[nH]c(=O)c(Cc2cc(Cl)ccc2Cl)c([C@H]2CC[C@@H](c3ccccc3)CC2)[nH]1 | 8 | 23 |  |
| O=c1[nH]c(=O)c(Cc2cccc(Cl)c2Cl)c([C@H]2CC[C@@H](c3ccccc3)CC2)[nH]1 | 5 | 25 |  |
| O=c1[nH]c(=O)c(Cc2ccc(Cl)cc2Cl)c([C@H]2CC[C@@H](c3ccccc3)CC2)[nH]1 | 11 | 44 |  |
| O=c1[nH]c(=O)c(Cc2c(Cl)cccc2Cl)c([C@H]2CC[C@@H](c3ccccc3)CC2)[nH]1 | 11 | 67 |  |
| O=c1[nH]c(=O)c(Cc2ccccn2)c([C@H]2CC[C@@H](c3ccccc3)CC2)[nH]1 | 188 | 337 |  |
| O=c1[nH]c(=O)c(Cc2ncccn2)c([C@H]2CC[C@@H](c3ccccc3)CC2)[nH]1 | 400 | > 3000 |  |
| O=c1[nH]c(=O)c(Cc2nccs2)c([C@H]2CC[C@@H](c3ccccc3)CC2)[nH]1 | 139 | > 300 |  |
| Cn1nccc1Cc1c(=O)[nH]c(=O)[nH]c1[C@H]1CC[C@@H](c2ccccc2)CC1 | > 1500 | > 3000 |  |
| Cc1cccc(Cc2c(=O)[nH]c(=O)[nH]c2[C@H]2CC[C@@H](c3ccccc3)CC2)n1 | 22 | 57 |  |
| Cc1ccnc(Cc2c(=O)[nH]c(=O)[nH]c2[C@H]2CC[C@@H](c3ccccc3)CC2)c1 | 21 | 44 |  |
| Cc1cccc(Cc2c(=O)n(C)c(=O)[nH]c2[C@H]2CC[C@@H](c3ccccc3)CC2)c1 | 19 | 39 |  |
| Cc1cccc(Cc2c(=O)n(CCN(C)C)c(=O)[nH]c2[C@H]2CC[C@@H](c3ccccc3)CC2)c1 | 9 | > 300 |  |
| Cn1c(=O)[nH]c([C@H]2CC[C@@H](c3ccccc3)CC2)c(Cc2cccc(C(F)(F)F)c2)c1=O | 16 | 162 |  |
| O=c1[nH]c(N2CCC(c3ccccc3)CC2)c(Cc2ccccc2)c(=O)[nH]1 | 8 |  | inhibition (INH) (Cytochrome P450 3A4): Not Active; Stability (Liver): Stable; inhibition (INH) (Cytochrome P450 2D6): Not Active; inhibition (INH) (Cytochrome P450 2C19): Not Active; inhibition (INH) (Cytochrome P450 1A2): Not Active; inhibition (INH) (Cytochrome P450 2C9): Not Active |
